How the values were obtained:
EXT1 = assay: DNA microarray, EXT1 expression in fibroblasts exposed to genistein; format: cell-based, human; conditions: 100 μM
Method: (§1) The experiments were conducted to characterise the transcriptomic profile of human fibroblast cells exposed to genistein, and in particular to determine the expression of genes encoding lysosomal enzymes involved in metabolism (i.e. synthesis and degradation) of organic substances. The absence or deficiency of these enzymes' activity is responsible for occurrence of various lysosomal storage diseases (LSD) (including MPS). The tested hypothesis assumed that genistein influences the expression of many genes, among which there are genes coding for enzymes required in metabolism of compounds, which are pathologically stored in LSD. The results provide important information regarding genistein action on the molecular level within the range of gene expression modulation by this substance. The experiment was conducted in biological quintuplicates. Human dermal fibroblasts (HDFa) were exposed in vitro for 1, 24 or 48 hours to: 30, 60 or 100 μM of genistein; 0.05% DMSO (K1); or were untreated (control cells) (K2), and total RNA was isolated and analysed.
(§2) Fibroblast cells were grown in Dulbecco (DMEM) medium supplemented with 10% fetal bovine serum (FBS) with the addition of 1% antibiotics and anti-fungal agents at 37° C. in humidified atmosphere of 5% CO2, until the required confluency was obtained.
(§3) To determine the effect of tested compound on the transcriptom of the fibroblast cells, the growth medium was replaced with fresh medium, either non-supplemented (0.05% DMSO), or containing genistein (30, 60 or 100 μM, in 0.05% DMSO). The exposure was done for 1, 24 or 48 hours.
(§4) Total RNA was isolated from fibroblasts using High Pure RNA Isolation Kit according to the protocol and then it was quantitatively evaluated using Quant-It™ RiboGreen® Assay Kit.
(§5) Biotinylated cRNA was prepared using Ambion Total PrepAmp Kit for Illumina arrays.
(§6) Standard hybridization and quantitative image analysis procedures—Illumina hybridization protocol and Illumina scanning protocol, were used.
(§7) Processing of the results was done during data definition, including: background correction (using background subtraction method), normalization (using quantile normalization algorithm with Illumina GenomeStudio software package: gene expression module version 1.9.0) and summarization (using method, which sums the values of signal intensities from a set of probes).

SGSH = assay: DNA microarray, SGSH expression in fibroblasts exposed to genistein; format: cell-based, human; conditions: for SGSH fold change Average: 48 h vs DMSO
Method: as §1, §2, §3, §4, §5, §6, §7

MANBA = assay: DNA microarray, MANBA expression in fibroblasts exposed to genistein; format: cell-based, human; conditions: for MANBA fold change Average: 48 h vs DMSO
Method: as §1, §2, §3, §4, §5, §6, §7

ARSG = assay: DNA microarray, ARSG expression in fibroblasts exposed to genistein; format: cell-based, human; conditions: for ARSG fold change Average: 48 h vs DMSO
Method: as §1, §2, §3, §4, §5, §6, §7

NEU1 = assay: DNA microarray, NEU1 expression in fibroblasts exposed to genistein; format: cell-based, human; conditions: for NEU1 fold change Average: 48 h vs DMSO
Method: as §1, §2, §3, §4, §5, §6, §7

[1] = test system: Human dermal fibroblasts (HDFa); assay: Transcriptomic profiling of fibroblasts with DNA microarrays, genes of synthesis and degradation; format: cell-based; conditions: cells cultured in the presence vs absence of genistein
Method: as §1, with “analysed. […]” for “analysed.”
Total RNA was isolated from fibroblasts using High Pure RNA Isolation Kit according to the protocol and then it was quantitatively evaluated using Quant-It™ RiboGreen® Assay Kit. […]
Standard hybridization and quantitative image analysis procedures—Illumina hybridization protocol and Illumina scanning protocol, were used. […]

GAA = assay: DNA microarray, GAA expression in fibroblasts exposed to genistein; format: cell-based, human; conditions: for GAA fold change Average: 48 h vs DMSO
Method: as §1, §2, §3, §4, §5, §6, §7

CD164 = assay: DNA microarray, CD164 expression in fibroblasts exposed to genistein; format: cell-based, human; conditions: for CD164 fold change Average: 48 h vs DMSO
Method: as §1, §2, §3, §4, §5, §6, §7

CTNS = assay: DNA microarray, CTNS expression in fibroblasts exposed to genistein; format: cell-based, human; conditions: for CTNS fold change Average: 48 h vs DMSO
Method: as §1, §2, §3, §4, §5, §6, §7

O=c1c(-c2ccc(O)cc2)coc2cc(O)cc(O)c12 [genistein, 4′,5,7-trihydroxy-3-phenylchromen-4-one]
EXT1 fold change Average 24h100/24hK1 (EXT1; 24 h vs 0.05% DMSO): 0.6022 fold change
EXT1 fold change Average 48h100/48hK1 (EXT1; 48 h vs 0.05% DMSO): 0.689 fold change
SGSH fold change Average 1h30/1hK1 (SGSH; 30 μM, 1 h vs 0.05% DMSO): 1.0703 fold change
SGSH fold change Average 1h60/1hK1 (SGSH; 60 μM, 1 h vs 0.05% DMSO): 1.065 fold change
SGSH fold change Average (SGSH; 60 μM): 1.122 fold change
SGSH fold change Average 1h100/1hK1 (SGSH; 100 μM, 1 h vs 0.05% DMSO): 1.07 fold change
SGSH fold change Average (SGSH; 100 μM): 0.9299 fold change
MANBA fold change Average 1h30/1hK1 (MANBA; 30 μM, 1 h vs 0.05% DMSO): 1.0095 fold change
MANBA fold change Average (MANBA; 30 μM): 1.6385 fold change
MANBA fold change Average 1h60/1hK1 (MANBA; 60 μM, 1 h vs 0.05% DMSO): 1.041 fold change
MANBA fold change Average (MANBA; 60 μM): 2.173 fold change
MANBA fold change Average 1h100/1hK1 (MANBA; 100 μM, 1 h vs 0.05% DMSO): 0.9489 fold change
MANBA fold change Average (MANBA; 100 μM): 2.387 fold change
ARSG fold change Average 1h30/1hK1 (ARSG; 30 μM, 1 h vs 0.05% DMSO): 1.083 fold change
ARSG fold change Average (ARSG; 30 μM): 1.3921 fold change
ARSG fold change Average 1h60/1hK1 (ARSG; 60 μM, 1 h vs 0.05% DMSO): 1.204 fold change
ARSG fold change Average (ARSG; 60 μM): 2.488 fold change
ARSG fold change Average 1h100/1hK1 (ARSG; 100 μM, 1 h vs 0.05% DMSO): 0.961 fold change
ARSG fold change Average (ARSG; 100 μM): 1.81 fold change
NEU1 fold change Average 1h30/1hK1 (NEU1; 30 μM, 1 h vs 0.05% DMSO): 1.2206 fold change
NEU1 fold change Average (NEU1; 30 μM): 1.6536 fold change
NEU1 fold change Average 1h60/1hK1 (NEU1; 60 μM, 1 h vs 0.05% DMSO): 1.323 fold change
NEU1 fold change Average (NEU1; 60 μM): 2.259 fold change
NEU1 fold change Average 1h100/1hK1 (NEU1; 100 μM, 1 h vs 0.05% DMSO): 1.353 fold change
NEU1 fold change Average (NEU1; 100 μM): 2.492 fold change
expression of genes of degradation [1]: increased
expression of genes of synthesis [1]: reduced
GAA fold change Average 1h30/1hK1 (GAA; 30 μM, 1 h vs 0.05% DMSO): 0.9686 fold change
GAA fold change Average 1h60/1hK1 (GAA; 60 μM, 1 h vs 0.05% DMSO): 1.087 fold change
GAA fold change Average (GAA; 60 μM): 1.763 fold change
GAA fold change Average 1h100/1hK1 (GAA; 100 μM, 1 h vs 0.05% DMSO): 0.935 fold change
GAA fold change Average (GAA; 100 μM): 1.955 fold change
CD164 fold change Average 1h30/1hK1 (CD164; 30 μM, 1 h vs 0.05% DMSO): 1.0714 fold change
CD164 fold change Average (CD164; 30 μM): 0.9618 fold change
CD164 fold change Average 1h60/1hK1 (CD164; 60 μM, 1 h vs 0.05% DMSO): 1.49 fold change
CD164 fold change Average 1h100/1hK1 (CD164; 100 μM, 1 h vs 0.05% DMSO): 1.002 fold change
CD164 fold change Average (CD164; 100 μM): 1.282 fold change
CTNS fold change Average 1h30/1hK1 (CTNS; 30 μM, 1 h vs 0.05% DMSO): 1.0024 fold change
CTNS fold change Average (CTNS; 30 μM): 1.5216 fold change
CTNS fold change Average 1h60/1hK1 (CTNS; 60 μM, 1 h vs 0.05% DMSO): 0.7997 fold change
CTNS fold change Average (CTNS; 60 μM): 1.577 fold change
CTNS fold change Average 1h100/1hK1 (CTNS; 100 μM, 1 h vs 0.05% DMSO): 0.7964 fold change
CTNS fold change Average (CTNS; 100 μM): 1.64 fold change

From patent publication US20150148551A1, “GENISTEIN FOR REDUCING LEVELS OF STORAGE COMPOUNDS IN THE TREATMENT AND/OR PREVENTION OF LYSOSOMAL STORAGE DISEASES (LSDS)” (3G THERAPEUTICS, INC., priority 2012, published 2015)
